Experimental data: patent US20260285855A1, “HETEROARYL DERIVATIVES AS DDRS INHIBITORS” (CHIESI FARMACEUTICI S.P.A., priority 2023, published 2026)

Columns and labels:
DDR1 = target: T1, DDR1 (Homo sapiens, UniProt Q08345); test: LanthaScreen Europium Kinase Binding assay, DDR1; settings: 5 nM DDR1, 20 nM Kinase Tracer 178, 1 h at rt; Ki from IC50 by Cheng-Prusoff; read-out: Ki DDR1
T1 construct: purchased Carna Biosciences
Description: (§1) DDR1 and DDR2 binding assays were performed using Life Technologies LanthaScreen™ Europium Kinase Binding assay. […] IC50 values were determined in GraphPad Prism 7.0 software, using 4 parameter model: log (inhibitor) vs. response. IC50 values were converted in Ki using the Cheng-Prusoff equation (Ki-IC50/(1+ [Tracer]/Kd).

DDR2 = target: T2, DDR2 (Homo sapiens, UniProt Q16832); test: LanthaScreen Europium Kinase Binding assay, DDR2; settings: 5 nM DDR2, 10 nM Kinase Tracer 178, 1 h at rt; Ki from IC50 by Cheng-Prusoff; read-out: Ki DDR2
T2 construct: purchased Life Technologies
T2 sequence (Q16832 22-855): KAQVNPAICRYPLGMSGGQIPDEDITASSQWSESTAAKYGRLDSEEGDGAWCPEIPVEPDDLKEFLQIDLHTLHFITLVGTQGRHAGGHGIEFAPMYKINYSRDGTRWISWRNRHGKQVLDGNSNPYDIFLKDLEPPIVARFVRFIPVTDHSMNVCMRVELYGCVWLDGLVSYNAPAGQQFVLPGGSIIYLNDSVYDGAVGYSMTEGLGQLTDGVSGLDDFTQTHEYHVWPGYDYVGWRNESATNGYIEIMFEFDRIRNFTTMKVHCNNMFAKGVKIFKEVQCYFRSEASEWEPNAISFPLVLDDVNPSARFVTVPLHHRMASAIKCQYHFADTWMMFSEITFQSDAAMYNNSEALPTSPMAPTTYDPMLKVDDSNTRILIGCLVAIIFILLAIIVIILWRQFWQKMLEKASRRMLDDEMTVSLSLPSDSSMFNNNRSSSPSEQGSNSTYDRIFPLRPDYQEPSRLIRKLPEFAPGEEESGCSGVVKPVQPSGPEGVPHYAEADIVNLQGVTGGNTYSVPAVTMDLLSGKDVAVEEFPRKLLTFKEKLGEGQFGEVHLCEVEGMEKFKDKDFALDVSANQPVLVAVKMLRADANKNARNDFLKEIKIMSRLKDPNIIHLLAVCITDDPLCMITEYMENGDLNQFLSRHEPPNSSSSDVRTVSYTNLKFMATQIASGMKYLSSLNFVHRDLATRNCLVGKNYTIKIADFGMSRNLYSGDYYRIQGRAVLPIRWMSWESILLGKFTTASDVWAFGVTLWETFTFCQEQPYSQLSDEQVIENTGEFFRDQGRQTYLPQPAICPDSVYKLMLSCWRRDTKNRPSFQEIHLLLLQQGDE
Description: as §1

T1 sequence (Q08345 19-913): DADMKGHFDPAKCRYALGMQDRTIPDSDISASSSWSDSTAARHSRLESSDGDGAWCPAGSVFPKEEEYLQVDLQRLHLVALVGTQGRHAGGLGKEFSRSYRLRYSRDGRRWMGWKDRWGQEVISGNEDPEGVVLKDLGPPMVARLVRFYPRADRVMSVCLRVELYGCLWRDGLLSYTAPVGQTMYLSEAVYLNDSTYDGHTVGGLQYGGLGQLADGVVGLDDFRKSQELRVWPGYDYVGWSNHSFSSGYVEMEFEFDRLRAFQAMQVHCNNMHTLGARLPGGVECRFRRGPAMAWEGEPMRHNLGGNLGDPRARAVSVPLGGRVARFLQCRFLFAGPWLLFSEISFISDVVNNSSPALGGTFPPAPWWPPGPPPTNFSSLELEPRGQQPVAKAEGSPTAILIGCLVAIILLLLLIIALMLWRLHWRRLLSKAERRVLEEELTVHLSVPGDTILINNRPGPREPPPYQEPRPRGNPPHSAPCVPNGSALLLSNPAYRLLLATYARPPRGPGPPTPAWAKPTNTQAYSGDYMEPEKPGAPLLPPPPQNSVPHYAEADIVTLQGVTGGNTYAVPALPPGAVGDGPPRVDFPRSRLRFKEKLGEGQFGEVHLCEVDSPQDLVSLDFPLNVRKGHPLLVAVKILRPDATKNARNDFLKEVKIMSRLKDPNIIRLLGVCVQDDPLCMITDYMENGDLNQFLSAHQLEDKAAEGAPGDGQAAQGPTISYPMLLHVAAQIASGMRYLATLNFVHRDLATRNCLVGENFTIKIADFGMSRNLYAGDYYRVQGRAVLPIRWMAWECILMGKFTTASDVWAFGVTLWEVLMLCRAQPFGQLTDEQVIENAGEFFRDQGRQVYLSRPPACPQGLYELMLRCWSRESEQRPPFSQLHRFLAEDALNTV

Ki (DDR1) [nM]	Ki (DDR2) [nM]	Structure (SMILES)
< 5	5 to 25	CN(C(=O)Nc1cc(C(F)(F)F)ccn1)C1CC2(C1)CN(C(=O)c1cnn3ccsc13)C2 [Example 217, 1-methyl-1-(2-(pyrazolo[5,1-b]thiazole-7-carbonyl)-2-azaspiro[3.3]heptan-6-yl)-3-(4-(trifluoromethyl)pyridin-2-yl)urea]
< 5	5 to 25	COc1c(CO)cc(OC(F)(F)F)cc1NC(=O)N(C)C1CC2(C1)CN(c1cnc3[nH]ncc3c1)C2 [Example 218, 1-(2-(1H-pyrazolo[3,4-b]pyridin-5-yl)-2-azaspiro[3.3]heptan-6-yl)-3-(3-(hydroxymethyl)-2-methoxy-5-(trifluoromethoxy)phenyl)-1-methylurea]
< 5	5 to 25	CN(C(=O)Nc1cc(OC(F)(F)F)ccn1)C1CC2(C1)CN(c1cnc3[nH]ncc3c1)C2 [Example 219, 1-(2-(1H-pyrazolo[3,4-b]pyridin-5-yl)-2-azaspiro[3.3]heptan-6-yl)-1-methyl-3-(4-(trifluoromethoxy)pyridin-2-yl)urea]
5 to 25	25 to 100	CN(C(=O)Nc1cncc(C(F)(F)F)c1)C1CC2(C1)CN(c1cnc3[nH]ccc3c1)C2 [Example 220, 1-(2-(1H-pyrrolo[2,3-b]pyridin-5-yl)-2-azaspiro[3.3]heptan-6-yl)-1-methyl-3-(5-(trifluoromethyl)pyridin-3-yl)urea]
< 5	5 to 25	CN(C(=O)Nc1cncc(OC(F)(F)F)c1)C1CC2(C1)CN(c1cnc3[nH]ncc3c1)C2 [Example 221, 1-(2-(1H-pyrazolo[3,4-b]pyridin-5-yl)-2-azaspiro[3.3]heptan-6-yl)-1-methyl-3-(5-(trifluoromethoxy)pyridin-3-yl)urea]
5 to 25	25 to 100	CN(C(=O)Nc1cc(C(C)(C)C)on1)C1CC2(C1)CN(C(=O)c1cnn3ccn(C)c13)C2 [Example 222, 3-(5-(tert-butyl)isoxazol-3-yl)-1-methyl-1-(2-(1-methyl-1H-imidazo[1,2-b]pyrazole-7-carbonyl)-2-azaspiro[3.3]heptan-6-yl)urea]
< 5	5 to 25	Cc1cc(NC(=O)N(C)C2CC3(C2)CN(C(=O)c2cnn4ccn(C)c24)C3)cc(C(F)(F)F)c1 [Example 223, 1-methyl-1-(2-(1-methyl-1H-imidazo[1,2-b]pyrazole-7-carbonyl)-2-azaspiro[3.3]heptan-6-yl)-3-(3-methyl-5-(trifluoromethyl)phenyl)urea]
< 5	5 to 25	CN(C(=O)Nc1cc(Cl)cc(C(F)(F)F)c1)C1CC2(C1)CN(C(=O)c1cnn3ccn(C)c13)C2 [Example 224, 3-(3-chloro-5-(trifluoromethyl)phenyl)-1-methyl-1-(2-(1-methyl-1H-imidazo[1,2-b]pyrazole-7-carbonyl)-2-azaspiro[3.3]heptan-6-yl)urea]
< 5	25 to 100	COCCc1cn2ncc(C(=O)N3CC4(CC(N(C)C(=O)Nc5cncc(C(F)(F)F)c5)C4)C3)c2n1C [Example 225, 1-(2-(2-(2-methoxyethyl)-1-methyl-1H-imidazo[1,2-b]pyrazole-7-carbonyl)-2-azaspiro[3.3]heptan-6-yl)-1-methyl-3-(5-(trifluoromethyl)pyridin-3-yl)urea]
< 5	5 to 25	CN(C(=O)Nc1cc(Br)ccn1)C1CC2(C1)CN(C(=O)c1cnn3ccsc13)C2 [Example 226, 3-(4-bromopyridin-2-yl)-1-methyl-1-(2-(pyrazolo[5,1-b]thiazole-7-carbonyl)-2-azaspiro[3.3]heptan-6-yl)urea]
< 5	5 to 25	COCCn1cc(-c2ccc3c(C(=O)N4CC5(CC(N(C)C(=O)Nc6cncc(C(F)(F)F)c6)C5)C4)cnn3c2)cn1 [Example 227, 1-(2-(6-(1-(2-methoxyethyl)-1H-pyrazol-4-yl)pyrazolo[1,5-a]pyridine-3-carbonyl)-2-azaspiro[3.3]heptan-6-yl)-1-methyl-3-(5-(trifluoromethyl)pyridin-3-yl)urea]
< 5	25 to 100	CN(C(=O)Nc1cc(C(F)(F)F)cnn1)C1CC2(C1)CN(C(=O)c1cnn3ccsc13)C2 [Example 228, 1-methyl-1-(2-(pyrazolo[5,1-b]thiazole-7-carbonyl)-2-azaspiro[3.3]heptan-6-yl)-3-(5-(trifluoromethyl)pyridazin-3-yl)urea]
< 5	5 to 25	Cc1ncc(-c2ccc3c(C(=O)N4CC5(CC(N(C)C(=O)Nc6cncc(C(F)(F)F)c6)C5)C4)cnn3c2)o1 [Example 229, 1-methyl-1-(2-(6-(2-methyloxazol-5-yl)pyrazolo[1,5-a]pyridine-3-carbonyl)-2-azaspiro[3.3]heptan-6-yl)-3-(5-(trifluoromethyl)pyridin-3-yl)urea]
< 5	5 to 25	CN(C(=O)Nc1cncc(C(F)(F)F)c1)C1CC2(C1)CN(C(=O)c1cnn3cc(-c4cccnc4)ccc13)C2 [Example 230, 1-methyl-1-(2-(6-(pyridin-3-yl)pyrazolo[1,5-a]pyridine-3-carbonyl)-2-azaspiro[3.3]heptan-6-yl)-3-(5-(trifluoromethyl)pyridin-3-yl)urea]
< 5	5 to 25	CN(C(=O)Nc1cncc(C(F)(F)F)c1)C1CC2(C1)CN(C(=O)c1cnn3cc(-c4cnn(C)c4)ccc13)C2 [Example 231, 1-methyl-1-(2-(6-(1-methyl-1H-pyrazol-4-yl)pyrazolo[1,5-a]pyridine-3-carbonyl)-2-azaspiro[3.3]heptan-6-yl)-3-(5-(trifluoromethyl)pyridin-3-yl)urea]
< 5	5 to 25	Cc1ccc(C(F)(F)F)cc1NC(=O)N(C)C1CC2(C1)CN(C(=O)c1cnn3ccn(C)c13)C2 [Example 232, 1-methyl-1-(2-(1-methyl-1H-imidazo[1,2-b]pyrazole-7-carbonyl)-2-azaspiro[3.3]heptan-6-yl)-3-(2-methyl-5-(trifluoromethyl)phenyl)urea]
< 5	5 to 25	COc1ccc(-c2ccc3c(C(=O)N4CC5(CC(N(C)C(=O)Nc6cncc(C(F)(F)F)c6)C5)C4)cnn3c2)cc1OC [Example 233, 1-(2-(6-(3,4-dimethoxyphenyl)pyrazolo [1,5-a]pyridine-3-carbonyl)-2-azaspiro[3.3]heptan-6-yl)-1-methyl-3-(5-(trifluoromethyl)pyridin-3-yl)urea]
< 5	5 to 25	Cc1ncc(-c2ccc3c(C(=O)N4CC5(CC(N(C)C(=O)Nc6cncc(C(F)(F)F)c6)C5)C4)cnn3c2)s1 [Example 234, 1-methyl-1-(2-(6-(2-methylthiazol-5-yl)pyrazolo[1,5-a]pyridine-3-carbonyl)-2-azaspiro[3.3]heptan-6-yl)-3-(5-(trifluoromethyl)pyridin-3-yl)urea]
< 5	5 to 25	CN(C(=O)Nc1cc(C(C)(C)C(F)(F)F)on1)C1CC2(C1)CN(C(=O)c1cnn3ccsc13)C2 [Example 235, 1-methyl-1-(2-(pyrazolo[5,1-b]thiazole-7-carbonyl)-2-azaspiro[3.3]heptan-6-yl)-3-(5-(1,1,1-trifluoro-2-methylpropan-2-yl)isoxazol-3-yl)urea]
< 5	5 to 25	COc1cc(-c2ccc3c(C(=O)N4CC5(CC(N(C)C(=O)Nc6cncc(C(F)(F)F)c6)C5)C4)cnn3c2)ccn1 [Example 236, 1-(2-(6-(2-methoxypyridin-4-yl)pyrazolo[1,5-a]pyridine-3-carbonyl)-2-azaspiro[3.3]heptan-6-yl)-1-methyl-3-(5-(trifluoromethyl)pyridin-3-yl)urea]
< 5	5 to 25	Cc1cc(-c2ccc3c(C(=O)N4CC5(CC(N(C)C(=O)Nc6cncc(C(F)(F)F)c6)C5)C4)cnn3c2)on1 [Example 237, 1-methyl-1-(2-(6-(3-methylisoxazol-5-yl)pyrazolo[1,5-a]pyridine-3-carbonyl)-2-azaspiro[3.3]heptan-6-yl)-3-(5-(trifluoromethyl)pyridin-3-yl)urea]
< 5	5 to 25	CN(C(=O)Nc1cc(C(F)(F)F)ccn1)C1CC2(C1)CN(C(=O)c1cnn3ccccc13)C2 [Example 238, 1-methyl-1-(2-(pyrazolo[1,5-a]pyridine-3-carbonyl)-2-azaspiro[3.3]heptan-6-yl)-3-(4-(trifluoromethyl)pyridin-2-yl)urea]
< 5	5 to 25	CN(C(=O)Nc1cc(OC(F)(F)F)ccn1)C1CC2(C1)CN(C(=O)c1cnn3ccccc13)C2 [Example 239, 1-methyl-1-(2-(pyrazolo[1,5-a]pyridine-3-carbonyl)-2-azaspiro[3.3]heptan-6-yl)-3-(4-(trifluoromethoxy)pyridin-2-yl)urea]
